The test system of one assay is endogenous MYC protein. As to the kind of experiment: Western blot of endogenous MYC in HeLa cells. The class given is cell-based. Particulars: 10 μM, 24 hours. How it is done: (§1) These assays were performed essentially as described in[67],[68]. For further information on immunohistochemistry, and on primers and antibodies, see Supplementary Information.
Assay [1] concerns the target T1, endogenous MYC:MAX interaction (Homo sapiens, UniProt P01106).
T1 construct: endogenous in cells; host or cells: breast cancer cells; MCF7 named for the titration
As to the kind of experiment: isPLA endogenous MYC:MAX in breast cancer cells (MCF7). The class given is cell-based. Particulars: 24 hours; for MYC:MAX isPLA signals, % of DMSO-treated controls: 10 μM, breast cancer cells; for IC50: titration in MCF7 cells, read-out: IC50 for inhibition of MYC:MAX by isPLA. How it is done: The isPLA assay has been described. Antibodies used are listed in Supplementary Information. […] Slides were washed in PBS with 0.05% Tween 20 and incubated in blocking buffer after which isPLA was performed using the Duolink® in situ PLA kit (Sigma-Aldrich) according to the manufacturer’s protocol. DNA was stained with DAPI. Incubation with primary antibodies were performed at +4 °C overnight. Images were taken using an Axiovert 200M inverted microscope (Zeiss) and fluorescent dots were quantified using semi-automated analysis in ImageJ (http://imagej.net) and averaged to number of dots per cell.

The test system of a further assay is T2, FRA1:JUN.
T2 construct: endogenous in cells
As to the kind of experiment: isPLA endogenous FRA1:JUN. Particulars: 10 μM. The class given is cell-based, human. How it is done: The isPLA assay has been described. Antibodies used are listed in Supplementary Information. Briefly, cells were grown on collagen-coated chamber slides (Falcon), and treated with 1–10 μM of compounds, respectively, for 16 hours, then washed twice with PBS and fixed in ice cold methanol for 5–15 min at room temperature. Slides were washed in PBS with 0.05% Tween 20 and incubated in blocking buffer after which isPLA was performed using the Duolink® in situ PLA kit (Sigma-Aldrich) according to the manufacturer’s protocol. DNA was stained with DAPI. Incubation with primary antibodies were performed at +4 °C overnight. Images were taken using an Axiovert 200M inverted microscope (Zeiss) and fluorescent dots were quantified using semi-automated analysis in ImageJ (http://imagej.net) and averaged to number of dots per cell.

Assay [2] has as its system MYC-driven transcription (ODC1, RSG16, CR2). The assay can be described thus: RT-qPCR of MYC target genes in U2OS-MYC-ER cells. The class given is cell-based. Particulars: 10 μM, 24 hours. How it is done:
To investigate the effect of the compounds on MYC-driven transcription, we utilized U2OS cells expressing a MYC-estrogen receptor (MYC-ER) fusion protein, the activity of which is regulated by the ligand 4-hydroxytamoxifen (HOT)[43].
as §1
In general terms: Real-time PCR tracks product formation cycle by cycle.

Assay [3] deals with MYCN-amplified neuroblastoma cells (IMR-32, Kelly, SK-N-DZ). As to the kind of experiment: Resazurin growth assay, MYCN-amplified neuroblastoma cell lines. Particulars: 48 hours; for growth of MYCN-amplified versus MYCN-non-amplified neuroblastoma cell lines: MYCMI-6 6.25 μM, MYCMI-11 and MYCMI-14 25 μM, 10058-F4 64 μM. The class given is cell-based, human. The text has this: HEK293A, MCF7, MDA-MB231, SK-N-F1, SK-N-RA, SK-N-AS, COS-7, HeLa, BJ cells, and Rat1 fibroblasts TGR-1 (wt), HO15.19 (MYC knockout) and HOmyc3 (MYC reconstituted HO15.19) were maintained in DMEM. The neuroblastoma cell lines Kelly, IMR-32 and SK-N-DZ, and the Burkitt’s lymphoma cell lines Mutu, Daudi and ST486 were kept in RPMI. SK-N-BE(2) cells were maintained in a 1:1 mixture of EMEM and F12 media, supplemented with 1% non-essential amino acid solution (NEAA) and 0.5% Glutamine. U2OS-MYC-ER cell lines were cultured in phenol-red free DMEM and treated with 100 nM 4-hydroxytamoxifen (HOT) (Sigma-Aldrich) to activate MYC-ER. IMR-90 was maintained in MEM. All media were supplemented with 10% FBS and 1% penicillin and streptomycin and kept at 37 °C and 5% CO2. All cell lines were mycoplasma free. Cell proliferation assays were performed as described in Supplementary Information. […]
Cell proliferation assays. Cell growth and viability was estimated in triplicates with WST-1
(Roche) or Resazurin sodium salt (Sigma-Aldrich) assays in medium at 37°C and 5% CO 2 for
2 hours after which absorbance or fluorescence, respectively, was measured with an Omega
Fluostar (BMG Labtech) in a 96 well plate format. […]
On the technique in general: The colour change of resazurin is a common sign of viable cells or microbes.

Several values for one entry are separate records, joined by “and”; a condition that tells them apart may be missing. Equal values may be shown once. Entries after “also recorded” stand apart in the source; their conditions may differ.

T1 sequence (P01106 whole entry): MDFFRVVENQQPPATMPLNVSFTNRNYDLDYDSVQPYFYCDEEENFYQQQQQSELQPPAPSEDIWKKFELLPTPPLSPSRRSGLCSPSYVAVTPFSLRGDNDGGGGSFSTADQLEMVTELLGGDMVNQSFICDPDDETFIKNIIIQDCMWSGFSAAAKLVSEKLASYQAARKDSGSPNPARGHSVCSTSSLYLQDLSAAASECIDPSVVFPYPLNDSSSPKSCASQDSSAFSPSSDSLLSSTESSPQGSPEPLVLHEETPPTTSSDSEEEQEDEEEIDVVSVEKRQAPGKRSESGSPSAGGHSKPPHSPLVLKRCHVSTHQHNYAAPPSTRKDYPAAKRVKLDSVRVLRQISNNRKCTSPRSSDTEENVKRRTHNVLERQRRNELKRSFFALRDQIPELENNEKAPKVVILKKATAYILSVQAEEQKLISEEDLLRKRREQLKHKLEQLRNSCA

Broadly, the IC50 is the point on the concentration scale where inhibition reaches its midpoint. What is called GI50 is the concentration at which growth is held to half of that of the control. Low values mean greater sensitivity of the cells, high ones lower sensitivity of the cells. For the molecule `CCOc1ccc2nc3cc(/N=N/c4ccc(N)nc4N)ccc3c(N)c2c1` [MYCMI-6], the “effect on endogenous MYC protein levels (western blot)” value (“effect … (western blot)” below) in the assay on endogenous MYC protein was “did not affect MYC protein levels to any greater extent; also recorded: do not”. Besides, in assay [1], the “MYC:MAX isPLA signals, % of DMSO-treated controls” value (“MYC:MAX isPLA signals, %” for short) is on record as 7%; the IC50 is < 1.5 µM and 1.5 µM. Further, the “effect on FRA1:JUN interaction (isPLA)” value in the assay with FRA1:JUN is “did not significantly affect”. Further, the “HOT-induced expression of MYC target genes ODC1, RSG16 and CR2” value (shortened to “HOT-induced expression”) in assay [2] was “significantly reduced”. The same molecule gave a GI50 in assay [3] (Homo sapiens, Neuroblastoma cell, resazurin) of 2.5 to 6 µM. In addition, the “growth of MYCN-amplified versus MYCN-non-amplified neuroblastoma cell lines” value in assay [3] was “reduced growth of the MYCN-amplified cell lines significantly stronger than the MYCN-non-amplified cell lines”.
In the case of `CCCCN(c1ccccc1)c1ncnc2c1cnn2C` [MYCMI-11], in the assay with endogenous MYC protein, the “effect … (western blot)” value is listed as “did not affect MYC protein levels to any greater extent; also recorded: do not”. In addition, in assay [1], the “MYC:MAX isPLA signals, %” value was found to be 23%; the IC50 is ~6 µM and 6 µM. Besides, the “effect on FRA1:JUN interaction (isPLA)” value with FRA1:JUN is “did not significantly affect”. In addition, the “HOT-induced expression” value in assay [2] is listed as “reduced expression of the genes to a lesser extent”. Also, the “growth of MYCN-amplified versus MYCN-non-amplified neuroblastoma cell lines” value in assay [3] was “reduced growth of the MYCN-amplified cell lines significantly stronger than the MYCN-non-amplified cell lines”.
Consider `O=C(O)/C=C/C(=O)Nc1cccc2c1-c1ccccc1C2=O` [MYCMI-14], for which the “effect … (western blot)” value in the assay with endogenous MYC protein is on record as “did not affect MYC protein levels to any greater extent”. In addition, the “effect … (western blot)” value in the assay on endogenous MYC protein (listed as MYCM-14) is “do not”. In addition, in assay [1], the “MYC:MAX isPLA signals, %” value was determined as 23%; the IC50 was ~6 µM and 6 µM. In addition, in the assay with FRA1:JUN, the “effect on FRA1:JUN interaction (isPLA)” value is on record as “did not significantly affect”. Moreover, the “HOT-induced expression” value in assay [2] is given as “reduced expression of the genes to a lesser extent”. Also, the “growth of MYCN-amplified versus MYCN-non-amplified neuroblastoma cell lines” value in assay [3] is on record as “reduced growth of the MYCN-amplified cell lines significantly stronger than the MYCN-non-amplified cell lines”.

Values taken from PMC6030159 (Scientific Reports, 2018).
